Source: patent publication US20100111874A1, “METHOD OF CANCER DETECTION AND TREATMENT” (University of Medicine and Dentistry of New Jresey, priority 2007, published 2010)

Tests used:
MCF7 breast cancer cells = experiment: MTT assay, CPT IC50; assay type: cell-based; conditions: Homo sapiens, 96 h, CPT continuously for 4 days
Description: (§1) Cell survival assays. MTT assay: Cells (3000 cells/well) are plated in 96-well microtiter plates and incubated at 37° C. in a CO2 incubator. For determination of IC50, cells are treated with varying concentrations of CPT for four days. Cells are then incubated with MTT (3-(4,5-dimethylthiazol-2-yl)-2,5-diphenyltetrazolium bromide) for 4 hrs at 37° C. The dye produced by viable cells is dissolved in DMSO and the optical density measured at 570 nm. All assays are performed at least twice in six replicate wells. Clonogenic assay: Cells (100-500 cells/plate) are plated in 6-well tissue culture plates and incubated at 37° C. in a CO2 incubator. Cells are then treated with various concentrations of CPT for 1 hr. Following CPT treatment, cells are washed free of CPT and placed in fresh medium. After 10 days, survived colonies are stained with Methylene blue and counted using the Minicount machine. Cell counting assay: Logarithmically growing cells are treated with various concentrations of CPT for 1 hr. CPT is then removed by washing the plates with CPT-free medium four times. Washed cells are allowed to grow in CPT-free medium for 4 days. Cell survival is determined by counting cells using the Coulter counter after trypsinization.
(§2) Example No. 6. […] Panel A, formation of cleavable complexes in MCF7 and MCF7/RC breast cancer cells. […]

[1] = test system: MCF7/RC breast cancer cells; experiment: MTT assay, CPT IC50; assay type: cell-based; conditions: Homo sapiens, 96 h; MCF7/RC low-level CPT-resistant clone; CPT continuously for 4 days
Description: as §1, §2

## CC[C@@]1(O)C(=O)OCc2c1cc1n(c2=O)Cc2cc3ccccc3nc2-1 [CPT, camptothecin]
MCF7 breast cancer cells
  IC50: 3.5 nM
[1]
  IC50: 30 nM
